In patent EP0185020B1, “NI[…] PREPARATION THEREOF AND UTILIZATION THEREOF IN ANTICANCEROUS CHEMIOTHERAPY” (CENTRE NATIONAL DE LA RECHERCHE SCIENTIFIQUE (CNRS), priority 1984, dated 1985):

What was measured:
Type in all cases: in vivo, souris B6D2F1/OLA
souche leucémique L1210 = experiment: Antitumour activity on L1210 leukaemia inoculated i.p. in mice (ICIG, Example 11); conditions: for indices I: dose not given; for survie à 60 jours: à différentes doses
Description: L'activité oncostatique de ces dérivés nitrosés a été déterminée à l'ICIG de Villejuif (Service du Pr. Mathe), en suivant un protocole expérimental décrit: M. Hayat et Coll., Cancer Chemother. Phar- macol., 1979, 3,217-221, R. Maral et Coll., Eur. J. Med. Chem., soumis pour publication.
(§1) Des souris B6D2F1/OLA, mâles, sont inoculées avec 10^5 cellules de la souche leucémique L1210 par voie intrapéritonéale au jour 0 et divisées en groupes. Le premier est le groupe témoin et les autres sont traités avec les drogues à différentes concentrations au jour 1,5 et 9. Les composés sont injectés en suspension dans l'huile d'olive. La mortalité des animaux est observée et l'autopsie indique si elle est due à la leucémie ou à l'action toxique des produits.
(§2) La dose létale 50% (DL50 aiguë) est déterminée en tenant compte de la mortalité survenue avant le huitième jour chez les animaux traités au jour J: 1. La médiane de survie des animaux traités (mT) et des animaux témoin (mC) a été établie et le test statistique non paramétrique de Wilcoxon a été utilisé. Les résultats sont considérés positifs si l'indice I (I = ^mT x 100) est supérieur à 125 et le test mC significatif à p ≼ 0,05. La valeur ∞ indique que 50% ou plus des animaux sont survivants au jour +60.
Plus l'intervalle des doses à efficacité maximale, ayant donc I = ∞, est important, plus le produit est doué d'une activité intéressante sur la leucémie L1210.

[1] = Acute lethal dose 50% (DL50 aiguë), i.p.; conditions: for DL 50: i.p., mortality before day 8 in animals treated on day 1, 11520 min
Description: as §1, §2

[2] = tested on: leucémie L 1210 greffée i.p.; experiment: Antitumour activity on L1210 leukaemia grafted i.p. in mice, A1 and A2 injected separately (ICIG, Example 12); conditions: for activité antitumorale sur la leucémie L 1210, in words: each isomer given separately i.v.; for T/C × 100: i.v.
Description: Au jour J: 0, des souris mâles B6D2F1 âgées de trois mois reçoivent par voie intrapéritonéale 10^5 cellules de la souche leucémique L 1210. Les animaux sont répartis en lots de 8 à 10 animaux pour les groupes témoins et de 6 à 8 animaux pour les groupes traités. Aux jours J : 1, J : 5, J : 9, les animaux reçoivent par voie intrapéritonéale ou intraveineuse le traitement à différentes doses. La CNCC est administrée en suspension dans l'huile d'olive. Les produits selon l'invention sont administrés dans du sérum physiologique. La mortalité est enregistrée tous les jours. La médiane de survie des animaux traités et des animaux témoins a été déterminée. Les résultats sont considérés comme positifs lorsque l'index I = [formula] est supérieur à 125.
La valeur ∞ signifie que 50 à 100% des animaux sont survivants au jour J : 90.
L'activité cytostatique sur la leucémie L 1210 de A, et A2 a été évaluée à l'ICIG chez des souris B6D2F1/OLA.
II a en outre été procédé à l'ICIG à une étude de l'activité antitumorale sur la leucémie L 1210 de chaque isomère A, et AZ administré séparément par voie intraveineuse. Les résultats sont rassemblés sur le tableau IV. […] La comparaison des doses actives à celles de la CNCC est impossible pour les raisons d'insolubilité de la CNCC énoncées précédemment.

SMILES	% de survivants à 60 jours (souche leucémique L1210; 5 mg/kg i.p., jours 1,5,9)	I = T/c × 100 (souche leucémique L1210; 5 mg/kg i.p., jours 1,5,9)	% de survivants à 60 jours (souche leucémique L1210; 10 mg/kg i.p., jours 1,5,9)	I = T/c × 100 (souche leucémique L1210; 10 mg/kg i.p., jours 1,5,9)	I = T/c × 100 (souche leucémique L1210; 15 mg/kg i.p., jours 1,5,9)	% de survivants à 60 jours (souche leucémique L1210; 12,5 mg/kg i.p., jours 1,5,9)	I = T/c × 100 (souche leucémique L1210; 12,5 mg/kg i.p., jours 1,5,9)	indices I (souche leucémique L1210)	survie à 60 jours (souche leucémique L1210)	DL 50 [1]	activité antitumorale sur la leucémie L 1210, in words [2]	T/C × 100 ([2]; 5 mg/kg)	T/C × 100 ([2]; 10 mg/kg)	T/C × 100 ([2]; 20 mg/kg)	T/C × 100 ([2]; 30 mg/kg)	T/C × 100 ([2]; 40 mg/kg)	I = T/c × 100 (souche leucémique L1210; 0,8 mg/kg i.p., jours 1,5,9)	I = T/c × 100 (souche leucémique L1210; 0,32 mg/kg i.p., jours 1,5,9)	I = T/c × 100 (souche leucémique L1210; 2 mg/kg i.p., jours 1,5,9)	other results
CC(=O)SCCNC(=O)N(CCCl)N=O [(5) ICIG 2018, S-acétyl N-[N-(chloro-2 éthyl) N-nitrosocarbamoyl] cystéamine]	14%	217	100%	∞ (La valeur ∞ indique que 50% ou plus des animaux sont survivants au jour +60)	490	80%	∞ (La valeur ∞ indique que 50% ou plus des animaux sont survivants au jour +60)	infini	100%	25 mg/kg										I = T/c × 100 (souche leucémique L1210; 0,64 mg/kg i.p., jours 1,5,9): 100; I = T/c × 100 (souche leucémique L1210; 4 mg/kg i.p., jours 1,5,9): 158; % de survivants à 60 jours (souche leucémique L1210; 15 mg/kg i.p., jours 1,5,9): 25%; I = T/c × 100 (souche leucémique L1210; 20 mg/kg i.p., jours 1,5,9): 211; I = T/c × 100 (souche leucémique L1210; 1,6 mg/kg i.p., jours 1,5,9): 117
C[S+]([O-])CCN(N=O)C(=O)NCCCl (stereo not shown) [A1]											faible activité	100	100	133	133	158				T/C × 100 ([2]; 50 mg/kg): 158; T/C × 100 ([2]; 60 mg/kg): Toxique
CSCCNC(=O)N(CCCl)N=O [(3) ICIG 2017, S-méthyl N-[N-(chloro-2 éthyl)N-nitrosocarbamoyl] cystéamine]	100%	∞ (La valeur ∞ indique que 50% ou plus des animaux sont survivants au jour +60)			156	87%	∞ (La valeur ∞ indique que 50% ou plus des animaux sont survivants au jour +60)	infini	100%	22 mg/kg							167	133	158	
C[S+]([O-])CCNC(=O)N(CCCl)N=O (stereo not shown) [A2]											forte activité	∞ (La valeur ∞ signifie que 50 à 100% des animaux sont survivants au jour J : 90)	∞ (La valeur ∞ signifie que 50 à 100% des animaux sont survivants au jour J : 90)	63	63	63				T/C × 100 ([2]; 1 mg/kg): 100
O=NN(CCCl)C(=O)NCCSC(c1ccccc1)(c1ccccc1)c1ccccc1 [(9) ICIG 2069, S-trityl N-[N-(chloro-2 éthyl) N-nitrosocarbamoyl] cystéamine]																				I = T/c × 100 (souche leucémique L1210; 250 mg/kg i.p., jours 1,5,9, résultats partiels): > 278; I = T/c × 100 (souche leucémique L1210; 625 mg/kg i.p., jours 1,5,9, résultats partiels): > 278; toxicité, in words [1]: n'est pas toxique
O=NN(CCCl)C(=O)NCCS [(1) ICIG 2016, N-[N-(chloro-2 éthyl) N-nitrosocarbamoyl] cystéamine]	100%	∞ (La valeur ∞ indique que 50% ou plus des animaux sont survivants au jour +60)	100%	∞ (La valeur ∞ indique que 50% ou plus des animaux sont survivants au jour +60)		100%	∞ (La valeur ∞ indique que 50% ou plus des animaux sont survivants au jour +60)	infini	100%	19 mg/kg							162	265	188	% de survivants à 60 jours (souche leucémique L1210; 15 mg/kg i.p., jour + 1): 100%; I = T/c × 100 (souche leucémique L1210; 15 mg/kg i.p., jour + 1): ∞ (La valeur ∞ indique que 50% ou plus des animaux sont survivants au jour +60)
